According to PubChem BioAssay (NCI):
Values joined by “and” are separate entries in the source; they are usually repeats but may differ in a detail not shown here. Equal entries are not always repeated.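 96-well plates; 48 h exposure; 5 concentrations. Endpoints by linear interpolation between flanking doses. Not reached: highest tested concentration assigned. TGI: total growth inhibition.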

Key:
Assay in all cases: NCI anticancer screen, dose series, 48 h
786-0 renal = test system: 786-0 renal
A549 NSCLC = test system: A549 NSCLC
CAKI-1 renal = test system: CAKI-1 renal
COLO 205 colon = test system: COLO 205 colon
HCC-2998 colon = test system: HCC-2998 colon
HCT-116 colon = test system: HCT-116 colon
HOP-62 NSCLC = test system: HOP-62 NSCLC
HT29 colon = test system: HT29 colon
MALME-3M melanoma = test system: MALME-3M melanoma
NCI-H460 lung = test system: NCI-H460 lung
NCI-H522 lung = test system: NCI-H522 lung
RXF 393 renal = test system: RXF 393 renal
SF-539 CNS = test system: SF-539 CNS
SNB-19 CNS = test system: SNB-19 CNS
U251 CNS = test system: U251 CNS
UO-31 renal = test system: UO-31 renal
MCF7 breast = test system: MCF7 breast
MDA-MB-231 breast = test system: MDA-MB-231 breast
T-47D breast = test system: T-47D breast

SMILES | TGI (786-0 renal) [µM] | TGI (A549 NSCLC) [µM] | TGI (CAKI-1 renal) [µM] | TGI (COLO 205 colon) [µM] | TGI (HCC-2998 colon) [µM] | TGI (HCT-116 colon) [µM] | TGI (HOP-62 NSCLC) [µM] | TGI (HT29 colon) [µM] | TGI (MALME-3M melanoma) [µM] | TGI (NCI-H460 lung) [µM] | TGI (NCI-H522 lung) [µM] | TGI (RXF 393 renal) [µM] | TGI (SF-539 CNS) [µM] | TGI (SNB-19 CNS) | TGI (U251 CNS) [µM] | TGI (UO-31 renal) [µM] | TGI (MCF7 breast) [µM] | TGI (MDA-MB-231 breast) [µM] | TGI (T-47D breast) [µM]
CN(CCO)c1nc2c(c(=O)[nH]1)CCC2 | > 100 | > 100 | > 100 | > 100 | > 100 | > 100 | > 100 | > 100 | > 100 | > 100 | > 100 | > 100 | > 100 | > 100 µM | > 100 | > 100 |  |  | 
COc1ccccc1NC(=O)/C(Cc1nc2ccc([N+](=O)[O-])cc2[nH]c1=O)=N\NC(=O)C[N+](C)(C)C | > 100 | > 100 | > 100 | > 100 | > 100 | > 100 | > 100 | > 100 |  | > 100 | > 100 | > 100 | > 100 | > 100 µM | > 100 | > 100 | > 100 | > 100 | 
O=C(c1ccccc1)c1ccc(COc2ccc(C(c3c(O)c4ccccc4oc3=O)c3c(O)c4ccccc4oc3=O)cc2)cc1 | 61.5 | 65.2 | 45 | 39.2 | 33.5 | > 100 | 47.4 | 34.9 |  | 48.6 | 38.1 | 44.5 | 46.4 | 58.6 µM | > 100 | 77.3 | 67.5 | > 100 | 57.6
COc1ccc(-c2c(N)n(-c3nc4ccccc4s3)c(=O)c3cc([N+](=O)[O-])ccc23)cc1 | 16.2 | 23.3 | 48.5 |  |  | > 100 | 27 | > 100 | 93.7 | 32.5 | 23.5 | 30.9 | 19.6 | > 100 µM | 35.2 | 46.7 | > 100 | 48.7 | 
COc1cc2cc(C(=O)N3CC(CCl)c4ccc(O)cc43)[nH]c2c(OC)c1OC (stereo unspecified) | 0.121 | 1.25 | 0.0201 | 0.0451 | 0.00936 |  |  | 0.0107 | 0.0178 |  | 0.00168 | 0.000301 | 0.00881 | 0.453 µM and 0.21 µM |  | 0.0429 |  | 0.0134 | 0.547
CCOC(=O)c1c(N2CCCC2)nsc1Nc1ccccc1 | > 100 | > 100 | > 100 | > 100 | > 100 | > 100 |  | > 100 | > 100 | > 100 |  | > 100 | > 100 | > 100 µM |  | > 100 |  | > 100 | > 100
CCOC(=O)CSc1nc(-c2ccccc2)c(C#N)c(=O)[nH]1 | > 100 | > 100 | > 100 | > 100 | > 100 | > 100 | > 100 | > 100 |  | > 100 | 47 | > 100 | > 100 | > 100 µM | > 100 | > 100 | > 100 | > 100 | > 100
CSCC1CC(c2ccc(Cl)cc2)=NO1 (stereo unspecified) | > 100 | > 100 | > 100 | > 100 | > 100 | > 100 | > 100 | > 100 | > 100 | > 100 | > 100 |  | > 100 |  | > 100 | > 100 |  |  | 
CC1(C)CC(=O)c2c(nc3ccc4ccccc4c3c2-c2ccc(NC(=O)CCCC(=O)Nc3ccc(-c4c5c(nc6ccc7ccccc7c46)CC(C)(C)CC5=O)cc3)cc2)C1 | > 100 | > 100 | > 100 | > 100 |  | > 100 | > 100 | > 100 |  | > 100 |  |  | > 100 | > 100 µM | > 100 | > 100 | > 100 | > 100 | > 100
Cn1c(/C=C(\O)c2ccc(Cl)cc2)nc2ccccc21 | > 100 | 69.4 | 97 | > 100 | > 100 | > 100 |  | > 100 | > 100 | > 100 | > 100 | > 100 | > 100 | > 100 µM | > 100 | 66.1 |  |  | 
O=C(Cn1c2c(c3ccccc31)CCCC2)NC1CCCCC1 | > 100 | > 100 | > 100 | > 100 | > 100 | > 100 | > 100 | > 100 | > 100 | > 100 |  |  | > 100 | > 100 µM |  | > 100 | > 100 |  | 
CCOC(=O)c1nc2ccc([N+](=O)[O-])cc2c2c1CCO2 | > 100 | > 100 | > 100 | > 100 | > 100 | > 100 | > 100 | > 100 | > 100 | > 100 | > 100 | > 100 | > 100 | > 100 µM | > 100 |  |  |  | 
COc1ccc(NC(=O)C/C(C)=N\N=C(N)N)c([N+](=O)[O-])c1 | > 100 | > 100 | > 100 | > 100 | > 100 | > 100 | > 100 | > 100 | > 100 | > 100 | > 100 | > 100 | > 100 | > 100 µM | > 100 | > 100 |  |  | 
CC(=O)C1=CSC2[C@H](NC(=O)Cc3ccccc3)C(=O)N2C1C(=O)OC(c1ccccc1)c1ccccc1 (stereo partly specified) | > 100 | > 100 | > 100 | > 100 | > 100 | > 100 | > 100 | > 100 | > 100 |  | > 100 |  | > 100 | > 100 µM |  | > 100 |  |  | 
